Experimental data as given in patent US20040141912A1, “Method for targeting chemical compounds to cells and pharmaceutical compositions used therein” (priority 2001, published 2004).
Entries after “also recorded” stand apart in the source; their conditions may differ.

Assays:
HeLa S3 cells = assay: Flow-cytometric (FACS) analysis of DDL binding to apoptotic cells in aged HeLa culture; assay type: cell-based; conditions: HeLa aged 96 h
Procedure: FIG. 2: HeLa cells were allowed to age by incubating the culture for 96 hours without exchange of the growth medium. As a result, a marked percentage of the cells became apoptotic. Cells were then incubated with DDL (1 μM, 2 minutes) under three different conditions: PLS-activation; PLS-inhibition; and reactivation of inhibited-PLS as defined above. Shown is quantitative analysis of fluorescence intensity (geomean) values.
For this purpose, cultured, aged HeLa S3 cells (ATCC CCL-2.2) were grown in Dulbecco's modified Eagle's medium (DMEM), containing CaCl (1.8 mM) and supplemented with 2 mM of L-glutamine; 100 units/ml of penicillin; 100 μg/ml of streptomycin; 12.5 units/ml of nystatin and 10% of fetal calf serum (FCS). Cells were seeded at a density of 5×10^6 cells/plate on a […] culture plates in a volume of 10 ml, and were allowed to age in culture for 96 hours without exchange of the growing medium. Such a procedure culminates in a large percentage of apoptotic cells within the culture. Culture (1×10^7/ml) was then incubated with DDL at a final concentration of 5 μM in HBS for 5 minutes, and taken immediately for FACS analysis for detection of bound DDL, using Becton-Dickinson cell sorter and CellQuest software. Excitation was at 360 nm and emission was measured at 530 nm.
Three different conditions were examined (FIG. 2): PLS-activation by the apoptotic process, PLS-inhibition; and reactivation of inhibited-PLS.

Jurkat cells = assay: Fluorescent microscopy of DDL uptake by Jurkat cells induced to undergo apoptosis by anti-Fas antibody; assay type: cell-based, human
Procedure: FIG. 1: Jurkat cells were treated with anti-Fas antibody (0.1 μg/ml) for three hours. As a result, a marked percentage of the cells became apoptotic (i.e., PLS-activated cells). For subsequent inhibition of PLS, culture was then treated for 30 minutes with EGTA (1 mM) and BAPTA (20 μM), (i.e., PLS-inhibited culture). Both cultures were treated with DDL (1 μM, 2 minutes) and visualized by a fluorescent microscope (Olympus):
Cultured Jurkat cells (human adult T cell leukemia cells) were grown in suspension in RPMI medium (Beit-Haemek, Israel), supplemented with 10% of fetal calf serum (FCS), 4 mM of L-glutamine, 1 mM of sodium pyruvate, 1 mM CaCl2 and antibiotics (100 units/ml penicilin; 100 μg/ml streptomycin and 12.5 units/ml of nystatin). Prior to induction of apoptosis, medium was replaced with HBS buffer (10 mM HEPES; 140 mM NaCl, 1 mM CaCl). Apoptosis was then triggered by treatment with anti-Fas Ab (0.1 μg/ml; 3 hrs).
Such a procedure culminates in accumulation of a large percentage of apoptotic cells within the culture. Culture was then incubated with DDL at a final concentration of 1 μM for 5 minutes, and then taken immediately for fluorescent microscopy [Olympus fluorescent microscope, model IX70, excitation wavelength of 360 nm, emission at 530 nm].
Modulation of PLS activity was achieved by the calcium depletion-repletion procedure (Momchilova, A., et al., 2000). Inhibition of PLS by Ca^2+-deprivation was performed by cell incubation with the extra-and intracellular chelating agents EGTA (Ethylen glycol-bis (β-aminoethyl ether)-N,N,N′-tetraacetic acid, 1 mM) and BAPTA-AM ([1,2-bis(o-Amino-phenoxy) ethane-N,N,N′,N′-tetraacetic acid tetra-(acetoxymethyl) ester, 20 μM, respectively. Such a procedure eliminates any traces of Ca^2+ possibly present either intra- or extra-cellularly. Subsequent to the induction of apoptosis for three hours, cells were subjected to said PLS inhibition for 30 minutes. Cells were then incubated with DDL for 5 minutes, and subjected to fluorescent microscopy.
For re-activation of PLS, the EGTA/BAPTA-treated cells were now treated with CaCl (1 mM) and calcium ionophore A23187 (2 μM, Calbiochem, Darmstadt, Germany), thus elevating ambient Ca^2+ levels.

CN(C)c1cccc2c(S(=O)(=O)NCCCCC(NS(=O)(=O)c3cccc4c(N(C)C)cccc34)C(=O)O)cccc12 (centres unmarked) [DDL]
DDL binding (fluorescence shift) after reactivation of PLS (HeLa S3 cells; Ca2+ re-administration): restored this shift
DDL binding (fluorescence shift) after PLS inhibition (HeLa S3 cells; Ca2+-deprivation): almost completely abolished this shift
DDL binding (fluorescence shift), PLS-activated apoptotic cells (HeLa S3 cells; PLS-activation by the apoptotic process): distinct shift to higher fluorescence levels
DDL uptake after re-activation of PLS (Jurkat cells; EGTA/BAPTA-treated cells + Ca2+ 1 mM + calcium ionophore A23187 2 μM): re-acquisition of a strong DDL uptake; also recorded: fast, selective and marked uptake
DDL uptake (fluorescence) by apoptotic cells (Jurkat cells; PLS-activated culture, anti-Fas Ab 0.1 μg/ml 3 h, DDL 1 μM): Some of the cells manifest DDL binding; also recorded: Selective and fast uptake
Intracellular localisation of DDL fluorescence (Jurkat cells; apoptotic cells): staining the cytoplasm but not the nucleus; also recorded: in the cytoplasm of those cells but not within the nuclei
DDL uptake (fluorescence intensity) after PLS inhibition (Jurkat cells; apoptotic cells, Ca2+-deprivation: EGTA 1 mM + BAPTA 20 μM, 30 min, DDL 1 μM): marked reduction in the intensity of DDL-binding; also recorded: marked decrease in DDL uptake
DDL binding by intact cells not undergoing apoptosis (Jurkat cells; same culture, DDL 1 μM): did not bind manifest significant DDL
